Source: US8507460B2, “Substituted 3′,5′-cyclic phosphates of purine nucleotide compounds and pharmaceutical compositions for the treatment of viral infections” (priority 2011, dated 2013)

Experiment: Stability in rat whole blood
Type: in vitro ADME

## CCOc1nc(N)nc2c1ncn2[C@@H]1O[C@@H]2COP(=O)(OC(C)C)O[C@H]2[C@@]1(C)O (single isomer, unassigned) [Compound 1a]
  Stability WB_Rat (ice; 1 hr): 105%
